# Data taken from patent publication US11414425B2 (priority 2018, dated 2022).
# Read-outs that look alike come from different tables or passages of the source.
# How the values were obtained:
# GABAAα5 receptor = molecular target: T1, GABAAα5 receptor (Rattus norvegicus, UniProt P18508+P19969); assay: in vivo; assay type: in vivo, Long Evans rats
# T1 construct: occupancy in the hippocampus (a region of high GABAAα5 receptor density); from tissue; host or cells: rat brain in vivo: hippocampus versus cerebellum
# Description: (§1) Food and water were available ad libitum.
# aged-impaired (AI) rats = assay: Radial Arm Maze (RAM) behavioral task, spatial memory retention; assay type: in vivo, rat; conditions: 3 mg/kg ip
# Description: A Radial Arm Maze (RAM) behavioral task is one example of a cognitive test, specifically testing spacial memory (Chappell et al. Neuropharmacology 37: 481-487, 1998). The RAM apparatus consists of, e.g., eight equidistantly spaced arms. A maze arm projects from each facet of a center platform. A food well is located at the distal end of each arm. Food is used as a reward. Blocks can be positioned to prevent entry to any arm. Numerous extra maze cues surrounding the apparatus may also be provided. After habituation and training phases, spatial memory of the subjects may be tested in the RAM under control or test compound-treated conditions. As a part of the test, subjects are pretreated before trials with a vehicle control or one of a range of dosages of the test compound. At the beginning of each trial, a subset of the arms of the eight-arm maze is blocked. Subjects are allowed to obtain food on the unblocked arms to which access is permitted during this initial “information phase” of the trial. Subjects are then removed from the maze for a delay period, e.g., a 60 second delay, a 15 minute delay, a one-hour delay, a two-hour delay, a six hour delay, a 24 hour delay, or longer) between the information phase and the subsequent “retention test,” during which the barriers on the maze are removed, thus allowing access to all eight arms. […] The identity and configuration of the blocked arms vary across trials. The number of “errors” the subjects make during the retention test phase is tracked. An error occurs in the trial if the subjects entered an arm from which food had already been retrieved in the pre-delay component of the trial, or if it re-visits an arm in the post-delay session that had already been visited. A fewer number of errors would indicate better spatial memory. The number of errors made by the test subject, under various test compound treatment regimes, can then be compared for efficacy of the test compound in treating cognitive impairment associated with CNS disorders.
# The effects of methyl 3,5-diphenylpyridazine-4-carboxylate on the in vivo spatial memory retention of aged-impaired (AI) rats were assessed in a Radial Arm Maze (RAM) behavioral task using vehicle control and four different dosage levels of methyl 3,5-diphenylpyridazine-4-carboxylate (0.1 mg/kg, 0.3 mg/kg, 1 mg/kg and 3 mg/kg, ip). RAM behavioral tasks were performed on eight AI rats. All five treatment conditions (vehicle and four dosage levels) were tested on all eight rats.
# The RAM apparatus used consisted of eight equidistantly-spaced arms. An elevated maze arm (7 cm width×75 cm length) projected from each facet of an octagonal center platform (30 cm diameter, 51.5 cm height). Clear side walls on the arms were 10 cm high and were angled at 65° to form a trough. […]
# α5-containing GABAAR = α5-containing GABAAR (Homo sapiens, UniProt P18507+P31644); conditions: (EC20); cited from earlier work
# [1] = assay type: in vivo, Long Evans rats; conditions: i.v.
# Description: as §1
# For plasma exposures, blood samples were centrifuged at 14000 rpm for 16 minutes. After centrifuging, 50 ul of supernatant (plasma) from each sample was added to 200 μl of acetonitrile plus 0.1% formic acid. […] Samples were sonicated for 5 minutes in an ultrasonic water bath, followed by centrifugation for 30 minutes, at 16000 RPM. 100 ul of supernatant was removed from each sample vial and placed in a new glass auto sample vial, followed by the addition of 300 μl of sterile water (pH 6.5).
# Additional studies were conducted in aged Long-Evans rats in order to determine the exposures at the behaviorally relevant doses in the cognition studies. Exposure in young Long-Evans rats was also determined to bridge with the receptor occupancy studies that were conducted in young Long-Evans rats. Exposures in young and aged Long-Evans rats were relatively similar (Table 4, FIG. 4).
# T1 sequence (P19969 32-464): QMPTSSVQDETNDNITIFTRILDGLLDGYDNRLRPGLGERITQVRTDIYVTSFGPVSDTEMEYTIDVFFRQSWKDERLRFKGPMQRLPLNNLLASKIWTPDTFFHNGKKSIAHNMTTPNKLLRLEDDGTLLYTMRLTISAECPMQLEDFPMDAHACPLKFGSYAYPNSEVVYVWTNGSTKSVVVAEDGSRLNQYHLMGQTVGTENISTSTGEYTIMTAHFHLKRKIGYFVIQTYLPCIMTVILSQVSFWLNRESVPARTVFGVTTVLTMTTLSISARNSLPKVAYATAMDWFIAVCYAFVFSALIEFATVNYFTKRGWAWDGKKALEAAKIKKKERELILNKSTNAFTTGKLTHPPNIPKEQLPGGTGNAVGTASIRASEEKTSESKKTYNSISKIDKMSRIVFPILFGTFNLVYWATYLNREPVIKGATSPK
# T1 sequence (P18508 39-466): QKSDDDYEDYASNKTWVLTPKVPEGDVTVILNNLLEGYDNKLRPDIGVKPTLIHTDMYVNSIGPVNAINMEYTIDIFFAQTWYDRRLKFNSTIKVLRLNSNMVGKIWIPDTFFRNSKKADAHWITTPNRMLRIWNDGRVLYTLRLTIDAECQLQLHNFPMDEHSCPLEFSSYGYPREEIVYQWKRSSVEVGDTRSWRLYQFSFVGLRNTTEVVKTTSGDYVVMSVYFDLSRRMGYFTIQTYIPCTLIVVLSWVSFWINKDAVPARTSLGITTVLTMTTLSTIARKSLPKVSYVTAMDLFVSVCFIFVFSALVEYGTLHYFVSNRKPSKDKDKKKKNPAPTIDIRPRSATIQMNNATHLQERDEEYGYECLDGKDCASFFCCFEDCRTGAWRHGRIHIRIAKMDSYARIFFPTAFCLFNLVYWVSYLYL
# α5-containing GABAAR, sequence (P31644 32-462): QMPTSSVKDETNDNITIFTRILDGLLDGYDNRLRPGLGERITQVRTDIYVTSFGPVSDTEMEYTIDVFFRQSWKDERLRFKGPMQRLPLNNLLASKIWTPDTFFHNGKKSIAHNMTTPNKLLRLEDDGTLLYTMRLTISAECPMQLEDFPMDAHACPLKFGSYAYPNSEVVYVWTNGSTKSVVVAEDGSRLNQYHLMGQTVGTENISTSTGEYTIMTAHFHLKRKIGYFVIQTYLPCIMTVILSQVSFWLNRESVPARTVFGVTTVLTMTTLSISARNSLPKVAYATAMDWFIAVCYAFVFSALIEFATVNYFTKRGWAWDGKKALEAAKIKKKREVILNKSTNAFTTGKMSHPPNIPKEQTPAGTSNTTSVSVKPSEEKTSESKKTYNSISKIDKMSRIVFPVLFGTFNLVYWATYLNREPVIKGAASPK
# α5-containing GABAAR, sequence (P18507 40-475): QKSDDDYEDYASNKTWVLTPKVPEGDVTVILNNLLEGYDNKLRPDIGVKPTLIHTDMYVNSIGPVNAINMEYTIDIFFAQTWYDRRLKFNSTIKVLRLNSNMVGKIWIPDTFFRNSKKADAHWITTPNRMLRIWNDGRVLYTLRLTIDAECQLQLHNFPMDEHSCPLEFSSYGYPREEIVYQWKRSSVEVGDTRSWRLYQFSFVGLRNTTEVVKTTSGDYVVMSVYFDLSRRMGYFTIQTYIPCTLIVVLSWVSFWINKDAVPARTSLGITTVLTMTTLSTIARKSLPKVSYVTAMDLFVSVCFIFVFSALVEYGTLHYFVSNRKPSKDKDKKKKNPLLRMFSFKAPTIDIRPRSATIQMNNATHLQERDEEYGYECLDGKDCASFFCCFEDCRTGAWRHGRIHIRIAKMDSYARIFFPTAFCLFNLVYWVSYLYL
# α5-containing GABAAR, sequence (P28472 26-473, further chain): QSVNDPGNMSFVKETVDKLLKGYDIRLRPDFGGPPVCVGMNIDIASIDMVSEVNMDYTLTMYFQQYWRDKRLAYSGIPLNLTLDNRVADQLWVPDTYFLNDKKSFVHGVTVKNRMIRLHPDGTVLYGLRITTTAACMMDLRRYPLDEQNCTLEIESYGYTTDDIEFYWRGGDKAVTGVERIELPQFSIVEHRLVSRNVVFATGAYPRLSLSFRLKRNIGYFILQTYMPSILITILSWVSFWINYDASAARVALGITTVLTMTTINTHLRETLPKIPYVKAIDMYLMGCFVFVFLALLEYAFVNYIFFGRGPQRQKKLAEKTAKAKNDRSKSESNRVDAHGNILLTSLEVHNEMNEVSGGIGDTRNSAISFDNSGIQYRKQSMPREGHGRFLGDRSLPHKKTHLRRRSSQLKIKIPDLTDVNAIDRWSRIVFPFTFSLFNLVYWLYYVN
structure (smiles),measurement,setting,value
"COC(=O)c1c(-c2ccccc2)cnnc1-c1ccccc1 [Methyl 3,5-diphenylpyridazine-4-carboxylate, reference compound]",GABAA α5 receptors occupied,"GABAAα5 receptor; at exposures behaviorally active in aged-impaired rats, hippocampus",about 32%
same,"receptor occupancy ED50, ratio method","GABAAα5 receptor; i.v., hippocampus/cerebellum ratio",1.8 mg/kg
same,receptor occupancy at 10 mg/kg,"GABAAα5 receptor; rat, iv, 10 mg/kg, i.v., read-out: GABAA α5 receptor occupancy",> 90%
same,memory performance relative to vehicle control treatment,"aged-impaired (AI) rats; two-hour delay RAM, t(7)=4.233, p=0.004",significantly improved memory performance
same,"average no. of errors ± standard error of the mean (SEM), retention test","aged-impaired (AI) rats; two-hour delay, AI rats",1.31±0.40
same,α5 in vitro efficacy,α5-containing GABAAR,+27
same,increase in hippocampal exposure,[1]; dose from 0.1 to 1 mg/kg,12 fold
same,increase in hippocampal exposure,[1]; dose from 1 to 10 mg/kg,~5 fold
same,increase in plasma exposure,[1]; dose from 1 to 10 mg/kg,12 fold
